Consider two molecules from patent US8586125B2, “Thermal treatment of an implantable medical device” (Advanced Cardiovascular Systems, Inc., priority 1999, dated 2013).

Molecules are shown by their SMILES.

The subject of one data set is coronary arteries. In words: Cephalotaxin/EVOH coated stents implanted in porcine coronary arteries. The data set is classed as in vivo, pigs. Particulars: cephalotaxin coated vs uncoated and EVOH coated stents; estimated 33 μg cephalotaxin per stent. The method, then:
Multi-Link™ stents were cleaned by placement in an ultrasonic bath of isopropyl alcohol solution for 10 minutes. The stents were dried and plasma cleaned in a plasma chamber. An EVOH solution was made with 1 gram of EVOH and 7 grams of DMSO, making an EVOH:DMSO ratio of 1:7. Cephalotaxin was added to the 1:7 EVOH:DMSO solution. Cephalotaxin constituted 5% by weight of the total weight of the solution. The solution was vortexed and placed in a tube. The cleaned Multi-Link™ stents were attached to mandrel wires and dipped into the solution. The coated stents were passed over a hot plate, for about 3-5 seconds, with a temperature setting of about 60° C. The coated stents were cured for 6 hours in an air box then placed in a vacuum oven at 60° C. for 24 hours. The above process was repeated twice, having a total of three layers. The average weight of the coating was 0.00013 gram, with an estimated cephalotaxin concentration of 33 μg. The stents were sterilized by electron beam radiation. […]

Data set [1] in a line: Release Rate Profile Procedure (in vitro, HPLC). Particulars: as demonstrated in Example 53. The data set is classed as physicochemical. Here is the method:
This Example 41 is referred to as the “Release Rate Profile Procedure.” A drug-coated stent was placed on a stent holder of a Vankel Bio-Dis release rate tester (Vankel, Inc., Cary, N.C.). The stent was dipped into an artificial medium which stabilizes the 40-O-(2-hydroxy)ethyl-rapamycin in the testing solution, including a phosphate buffer saline solution (10 mM, pH 7.4) with 1% TRITON X-100 (Sigma Corporation), for a designated amount of time (e.g., 3 hours). Then the solution was analyzed for the amount of drug released from the stent coating using an HPLC process. The HPLC system consisted of a Waters 2690 system with an analytical pump, a column compartment (set at 40° C.), an auto-sampler, and a 996 PDA detector. The column was an YMC Pro C18 (150 mm×4.6 I.D., 3 μm particle size), maintained at a temperature of 40° C. The mobile phase consisted of 75% acetonitrile and 25% 20 mMolar ammonium acetate. […] After the drug solution was analyzed by HPLC the results were quantified by comparing the release rate results with a reference standard.
If the experimental protocol required that the stent coating be subjected to experimental conditions for an additional time, the stent was then dipped in a fresh medium solution for the necessary amount of time (e.g., another 3 hours) and the drug released in the solution was analyzed again according to the HPLC procedure described above. […]

Data set [2] in a line: Release rate from a standard polymeric coating. The data set is classed as physicochemical. Particulars: in about 24 hours. From the text:
Another potential shortcoming of the foregoing method of medicating stents is that the release rate of the active agent may be too high to provide an efficacious treatment. This shortcoming may be especially pronounced with certain active agents. […] Thus, there is a need for a coating that reduces the release rate of active agents in order to provide a more efficacious release rate profile.

`COC1=C[C@]23CCCN2CCc2cc4c(cc2[C@@H]3[C@@H]1O)OCO4` [cephalotaxin, Cephalotaxin]: in the data set on coronary arteries, the “amount of neointimal proliferation resulting from arterial injury” value was “no significant difference”.

As for `CO[C@H]1C[C@@H]2CC[C@@H](C)[C@@](O)(O2)C(=O)C(=O)N2CCCC[C@H]2C(=O)O[C@H]([C@H](C)C[C@@H]2CC[C@@H](OCCO)[C@H](OC)C2)CC(=O)[C@H](C)/C=C(\C)[C@@H](O)[C@@H](OC)C(=O)[C@H](C)C[C@H](C)/C=C/C=C/C=C/1C` [40-O-(2-hydroxy)ethyl-rapamycin], in data set [1], the “decrease of the release rate by thermal treatment as compared to a control group” value is reported as “about 50%”. For the same molecule, the “release rate from a standard polymeric coating” value in data set [2] was “greater than 50%”.
